Values quoted from earlier work in patent publication US20120093882A1 (priority 2009, published 2012).

How the values were obtained:
[1] = after oral administration
[2] = dissolved in ultra-pure water, natural midsummer sunlight, maximum of 145 h

- absorption [1]: almost completely absorbed
- hepatic first-pass metabolism [1]: 50%
- degradation on exposure to sunlight [2]: Fast degradation
Compound: O=C(O)Cc1ccccc1Nc1c(Cl)cccc1Cl [Diclofenac]
